Laboratory results published in patent US20220017877A1, “BILIRUBIN OXIDASE ACTIVITY IMPROVING METHOD, AND BILIRUBIN OXIDASE PRODUCT” (OZEKI CORPORATION, priority 2018, published 2022).

Target: T1, recombinant BOD (bilirubin oxidase) derived from Myrothecium verrucaria MT-1 (Albifimbria verrucaria, UniProt Q12737)
T1 construct: made in house; host or cells: Aspergillus sp
T1 sequence (Q12737 39-572): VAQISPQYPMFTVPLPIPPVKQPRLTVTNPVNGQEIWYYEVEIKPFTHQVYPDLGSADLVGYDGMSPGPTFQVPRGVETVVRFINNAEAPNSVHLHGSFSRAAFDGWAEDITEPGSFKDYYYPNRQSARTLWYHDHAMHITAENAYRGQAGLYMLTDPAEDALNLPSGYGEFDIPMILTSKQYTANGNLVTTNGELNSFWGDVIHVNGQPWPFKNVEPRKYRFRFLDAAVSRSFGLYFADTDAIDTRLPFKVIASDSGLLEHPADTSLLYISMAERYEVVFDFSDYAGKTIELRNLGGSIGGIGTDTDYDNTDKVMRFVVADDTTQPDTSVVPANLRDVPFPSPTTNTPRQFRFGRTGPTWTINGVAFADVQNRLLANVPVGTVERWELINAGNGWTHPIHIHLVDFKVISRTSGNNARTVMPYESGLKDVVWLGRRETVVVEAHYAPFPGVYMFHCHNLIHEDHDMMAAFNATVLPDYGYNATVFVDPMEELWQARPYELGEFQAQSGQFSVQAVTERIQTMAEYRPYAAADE
Experiment: BOD activity after leaving the BOD solution with an activity improving agent or comparative substance at 30° C. in a deoxygenated atmosphere (Test Example 1)
Format: biochemical
Settings: relative to Day 0, additive concentration as in Table 1; for Activity (%) Day 47: left 47 days at 30° C.
Method: A BOD solution, which contains: a BOD; and the present activity improving agent or a comparative substance, was left in an environment at a temperature of 30° C. in a deoxygenated atmosphere for a certain period of time. After the BOD solution was left as above, improvement of the BOD activity by the present activity improving method was evaluated by measurement of the BOD activity.
In Test Example 1, a BOD gene derived from a Myrothecium verrucaria MT-1 (GenBank accession number: D12579.1) was introduced into an Aspergillus sp., and then a recombinant BOD (hereinafter, also referred to simply as “BOD”) expressed in the Aspergillus sp. was purified by using a well-known technique and then used as the BOD. The BOD gene derived from the Myrothecium verrucaria MT-1 was codon-optimized in accordance with a gene sequence of the Aspergillus sp., and then introduced into the Aspergillus sp. Further, the BOD thus purified was dissolved in a 50 mM glycine-KOH (pH 8.5) buffer so that the concentration of the BOD became 1.0 mg/mL. Then, a resultant solution was used as a BOD enzyme solution.
The enzymatic activity of the BOD was measured as follows. To 1780 μL of a 50 mM potassium phosphate buffer (pH 6.5), 200 μL of a 20 mM ABTS substrate solution was added, so that a mixed solution (1980 μL) was prepared. This mixed solution was incubated for 1 min at 37° C. Thereafter, 20 μL of a solution containing the BOD (specifically, a BOD solution for evaluation, which will be described later) was added to the mixed solution, and a resultant mixed solution (2 mL) was incubated at 37° C. While the mixed solution was incubated, the absorbance of the mixed solution at a wavelength of 436 nm was measured immediately after that addition of the BOD solution for evaluation (at 0 seconds) and thereafter every 20 seconds. On the basis of (i) the absorbance of the mixed solution at a wavelength of 436 nm immediately after the addition of the BOD solution for evaluation and (ii) the absorbance of the mixed solution at a wavelength of 436 nm after a lapse of 1 minute from the addition of the BOD solution for evaluation, calculation was carried out for obtaining an increase rate per minute of the absorbance of the mixed solution at a wavelength of 436 nm after the addition of the BOD solution for evaluation. The BOD activity (unit) in the BOD solution for evaluation was calculated from the increase rate. In the present specification, the amount of enzyme for oxidizing 1 μmol of ABTS per minute was defined as one unit.
A specific test method of Test Example 1 is as follows. To a BOD enzyme solution containing a BOD, one of the above-described present activity improving agents was added, so that a BOD solution (which is the BOD solution according to an embodiment of the present invention) was prepared. Further, one of the above-described comparative substances was added to the BOD enzyme solution, so that another BOD solution was prepared. In addition, still another BOD solution was prepared by adding, to the BOD enzyme solution, distilled water in place of the activity improving agent or the comparative substance, so that a control (denoted as Without additive in Tables 1 to 3) was prepared. The final concentration of the activity improving agent or the comparative substance in each of the above BOD solutions was shown in “mM” or “percentage (%)” (amount (g) of the activity improving agent or the comparative substance relative to 100 mL of the BOD solution) in Table 1.
Thereafter, one of these BOD solutions and a deoxygenating agent (Anaero Pack manufactured by Mitsubishi Gas Chemical Company, Inc.) were included in one container. Then, the container was sealed, so that a BOD container was prepared. The BOD container was left in an environment at a temperature of 30° C. in a deoxygenated atmosphere for 47 days (Table 2) or 14 days (Table 3). […]

Structure (SMILES)	Activity (%) Day 47 [%]	Activity (%) Day 14 (left 14 days at 30° C.) [%]
O=C1O[C@H]([C@@H](O)CO)C(O)=C1O [L-ascorbic acid]	151	
O=c1[nH]c(=O)c2[nH]c(=O)[nH]c2[nH]1 [Uric acid, uric acid]	155	156
